Series [1] has as its target T1, ATP-dependent Clp protease proteolytic subunit (Staphylococcus aureus (strain NCTC 8325), UniProt Q2G036).
T1 sequence (Q2G036 whole entry): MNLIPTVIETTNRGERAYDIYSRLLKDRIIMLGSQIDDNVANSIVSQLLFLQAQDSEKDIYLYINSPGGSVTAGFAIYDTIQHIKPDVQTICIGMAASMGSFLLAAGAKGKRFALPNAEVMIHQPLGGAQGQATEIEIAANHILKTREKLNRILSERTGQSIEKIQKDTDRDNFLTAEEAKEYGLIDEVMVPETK
Description: Agonist activity at Staphylococcus aureus ClpP extracted from Escherichia coli BL21 (DE3) cells using alpha-casein as substrate assessed as substrate hydrolysis preincubated for 15 mins followed by substrate addition and measured after 2 hrs by SDS-PAGE analysis.

Series [2] addresses T2, ATP-dependent Clp protease proteolytic subunit (Staphylococcus aureus (strain NCTC 8325)) (UniProt Q2G036).
T2 sequence (whole entry): T1 sequence (Q2G036 whole entry)
Nature of the series: Potency index, ratio of ONC212 EC50 to test compound EC50 for agonist activity at Staphylococcus aureus ClpP extracted from Escherichia coli BL21 (DE3) cells using FITC-casein as substrate assessed as substrate hydrolysis preincubated for 60 mins followed by substrate addition and measured after 1 hrs by fluorescence based analysis. The note with it: time 120.0 min.

The target in series [3] is ATP-dependent Clp protease proteolytic subunit (Escherichia coli (strain K12), UniProt P0A6G7). Description: Agonist activity at Escherichia coli ClpP using alpha-casein as substrate assessed as substrate hydrolysis preincubated for 15 mins followed by substrate addition and measured after 2 hrs by SDS-PAGE analysis.
In series [4] the target is T2, ATP-dependent Clp protease proteolytic subunit (Staphylococcus aureus (strain NCTC 8325)). Nature of the series: Induction of thermal stabilization of CLpP in Staphylococcus aureus Newman at 10 times of MIC preincubated for 2 hrs followed by compound washout and incubated under 57.3 to 74.5 degreeC for 3 mins by CETSA.
Series [5] deals with ATP-dependent Clp protease proteolytic subunit, mitochondrial (Homo sapiens, UniProt Q16740). Nature of the series: Induction of thermal stabilization of CLpP in HEK293T/17 at 10 times of MIC preincubated for 2 hrs followed by compound washout and incubated under 57.3 to 74.5 degreeC for 3 mins by CETSA. The format is cell-based.
Series [6] relates to Staphylococcus aureus. Description: microbe, parasite or virus in culture. The class given is functional. As to conditions: NRS-70, time 18 hrs.
Description: Antibacterial activity against methicillin-resistant Staphylococcus aureus NRS-70 assessed as inhibition of visible growth of bacteria incubated for 18 hrs by absorbance based analysis
Series [7] deals with Staphylococcus aureus. Nature of the series: microbe, parasite or virus in culture. The format is functional. As to conditions: time 18 hrs.
Description: Antibacterial activity against multidrug-resistant Staphylococcus aureus clinical isolate XJ009 assessed as inhibition of visible growth of bacteria incubated for 18 hrs by absorbance based analysis
The test system of series [8] is Staphylococcus aureus. Nature of the series: microbe, parasite or virus in culture. The class given is functional. The note with it: time 18 hrs. This is another data set of the same source.
Description: Antibacterial activity against multidrug-resistant Staphylococcus aureus clinical isolate XJ025 assessed as inhibition of visible growth of bacteria incubated for 18 hrs by absorbance based analysis
Series [9] relates to Staphylococcus aureus. Description: microbe, parasite or virus in culture. The format is functional. The note with it: time 18 hrs. The source holds these as a separate data set.
Description: Antibacterial activity against multidrug-resistant Staphylococcus aureus clinical isolate XJ049 assessed as inhibition of visible growth of bacteria incubated for 18 hrs by absorbance based analysis
In series [10] the test system is Staphylococcus aureus. Description: microbe, parasite or virus in culture. The class given is functional. As to conditions: time 18 hrs. This is another data set of the same source.
Description: Antibacterial activity against multidrug-resistant Staphylococcus aureus clinical isolate XJ052 assessed as inhibition of visible growth of bacteria incubated for 18 hrs by absorbance based analysis
The test system of series [11] is Staphylococcus aureus. Nature of the series: Antibacterial activity against Staphylococcus aureus USA300 infected in Zebrafish infection model assessed as increase in zebrafish survival at 0.5 mg/kg pre-infected for 1 hrs followed by compound addition and measured after 5 days. The format is functional, organism-based. The note with it: time 5.0 day.
Series [12] concerns Staphylococcus aureus. Nature of the series: Antibacterial activity against Staphylococcus aureus USA300 infected in female ICR mouse peritonitis model assessed as reduction in bacterial load in lung at 25 to 100 mg/kg, ip pre-infected for 1 hrs followed by compound addition and measured after 5 days relative to control. The class given is functional. The note with it: dose 25-100 mg/kg, time 5 day.

The test system of series [13] is Staphylococcus aureus. Nature of the series: Antibacterial activity against Staphylococcus aureus USA300 infected in female ICR mouse peritonitis model assessed as reduction in bacterial load in kidney at 25 to 100 mg/kg, ip pre-infected for 1 hrs followed by compound addition and measured after 5 days relative to control. The class given is functional. As to conditions: dose 25-100 mg/kg, time 5 day.

Series [14] has as its system Staphylococcus aureus. Description: Antibacterial activity against oxacillin-resistant Staphylococcus aureus clinical isolate XJ049 infected in female ICR mouse peritonitis model assessed as mouse survival at 50 mg/kg, ip pre-infected for 1 hrs followed by compound addition and measured after 5 days relative to control. The format is functional. As to conditions: 120 h, time 5 day.

Series [15] is described as follows: Toxicity in female ICR mouse model of peritonitis infected with oxacillin-resistant Staphylococcus aureus clinical isolate XJ049 assessed as effect on body weight at 50 mg/kg, ip pre-infected for 1 hrs followed by compound addition and measured after 5 days. The format is organism-based. As to conditions: in vivo, 120 h, time 5 day.

SMILES strings stand for the structures. Converted amounts (≈) assume the structure as drawn. The source made the active and inactive calls. The calls are words filed in the database; no cut-off is given here.

Chain of ATP-dependent Clp protease proteolytic subunit (Escherichia coli (strain K12), UniProt P0A6G7) (P0A6G7 whole entry): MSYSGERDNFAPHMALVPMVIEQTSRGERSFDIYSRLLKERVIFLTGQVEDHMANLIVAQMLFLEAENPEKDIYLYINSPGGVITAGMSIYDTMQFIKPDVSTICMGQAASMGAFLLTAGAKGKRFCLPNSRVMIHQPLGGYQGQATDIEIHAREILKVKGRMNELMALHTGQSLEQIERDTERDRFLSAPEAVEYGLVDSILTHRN
Chain of ATP-dependent Clp protease proteolytic subunit, mitochondrial (Q16740 whole entry): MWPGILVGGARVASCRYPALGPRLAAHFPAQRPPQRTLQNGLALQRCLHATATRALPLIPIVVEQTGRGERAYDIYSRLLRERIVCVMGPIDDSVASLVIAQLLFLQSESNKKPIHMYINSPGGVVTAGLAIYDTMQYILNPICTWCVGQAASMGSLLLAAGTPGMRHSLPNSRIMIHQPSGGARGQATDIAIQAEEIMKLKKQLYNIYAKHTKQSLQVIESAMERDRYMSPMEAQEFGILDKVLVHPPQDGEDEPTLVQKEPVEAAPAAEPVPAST

For the compound `CC[C@H](C)[C@H]1C(=O)N(Cc2ccc(OC)c3ccccc23)C[C@@H]2N(C(=O)NCCCC(F)(F)F)CCC(=O)N12`, the results for the EC50 in [1] and in series [3] were 1100 nM and over 100000 nM, respectively. Moreover, the Ratio EC50 in series [2] worked out at 2.2. Also, the outcome in [4] was Active. Besides, the Activity entry is reported as “Active; Minimal Effect On Thermal Stability Observed” in series [5]; “Active; Significant Improvement Observed Compared To 0.5 Mg/Kg Of Vancomycin” with Staphylococcus aureus [11]; 2 log10CFU/g in the series with Staphylococcus aureus [12]; 2 log10CFU/g with Staphylococcus aureus [13]; “Non-toxic” in series [15]. For the same compound, the MIC in the series on Staphylococcus aureus [6] turned out to be 0.06 µg/mL (≈ 0.109 µM); with Staphylococcus aureus [7], 0.06 µg/mL (≈ 0.109 µM); against Staphylococcus aureus [8], 0.13 µg/mL (≈ 0.237 µM); against Staphylococcus aureus [9], 0.13 µg/mL (≈ 0.237 µM); in the series on Staphylococcus aureus [10], 0.13 µg/mL (≈ 0.237 µM). Also, the survival at 50 mg/kg in the series on Staphylococcus aureus [14] worked out at 100%.

The values are drawn from ChEMBL document CHEMBL6096689, “Structure-Guided Development of ClpP Agonists with Potent Therapeutic Activities against Staphylococcus aureus Infection” (J Med Chem, 2025).
